The values that follow come from US20210070748A1, “INHIBITORS OF BRUTONS TYROSINE KINASE” (Pharmacyclics LLC, priority 2015, published 2021).

Format in all cases: biochemical
The target of one assay is T1, BTK-WT (Homo sapiens, UniProt Q06187).
T1 construct: purified from insect cells as a full-length construct containing an N-terminal 6X-His tag; His6 (N); made in house; host or cells: insect cells (baculovirus Sf21 in Method B)
Put plainly: Btk in vitro inhibitory activity (one of Method A TR-FRET, Method B electrophoretic mobility shift, Method C radiometric filter binding). To be noted: read-out: IC50 BTK-WT. Background: A gel shift assay detects complexes by their altered migration in electrophoresis.

The next assay has as its target T2, ITK (Homo sapiens, UniProt Q08881).
T2 sequence (Q08881 1-620): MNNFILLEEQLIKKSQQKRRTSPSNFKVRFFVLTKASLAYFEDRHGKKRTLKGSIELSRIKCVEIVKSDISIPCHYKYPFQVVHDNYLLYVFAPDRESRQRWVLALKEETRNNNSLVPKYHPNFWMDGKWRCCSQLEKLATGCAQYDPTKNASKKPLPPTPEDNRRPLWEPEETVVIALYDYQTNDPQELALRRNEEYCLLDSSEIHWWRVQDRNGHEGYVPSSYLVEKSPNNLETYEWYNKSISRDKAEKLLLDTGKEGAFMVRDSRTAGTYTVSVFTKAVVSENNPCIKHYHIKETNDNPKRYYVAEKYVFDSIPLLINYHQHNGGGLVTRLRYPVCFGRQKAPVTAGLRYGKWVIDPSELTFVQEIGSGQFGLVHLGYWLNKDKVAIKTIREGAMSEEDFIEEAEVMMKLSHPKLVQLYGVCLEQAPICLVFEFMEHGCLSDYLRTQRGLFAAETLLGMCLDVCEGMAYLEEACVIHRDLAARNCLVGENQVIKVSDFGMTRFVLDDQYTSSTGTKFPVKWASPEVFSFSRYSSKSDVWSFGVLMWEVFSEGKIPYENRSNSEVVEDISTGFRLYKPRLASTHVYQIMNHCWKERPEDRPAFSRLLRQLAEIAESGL
In words: Inhibition of a panel of kinases, in vitro HotSpot kinase assay: ITK. The procedure:
The degree of inhibition of a panel of kinases is determined using the in vitro HotSpot kinase assay (purified enzymes, ^33P-ATP, an appropriate substrate and 1 μM ATP).

A further assay addresses LCK (Homo sapiens, UniProt P06239). In words: Inhibition of a panel of kinases, in vitro HotSpot kinase assay: LCK. Conditions: read-out: IC50 LCK.
Setting [1] is: Table 13, A compounds, 1 μM ATP.

Read-outs that look alike come from different tables or passages of the source. Bounds are passed on as bounds.

Sequence of LCK (P06239 whole entry): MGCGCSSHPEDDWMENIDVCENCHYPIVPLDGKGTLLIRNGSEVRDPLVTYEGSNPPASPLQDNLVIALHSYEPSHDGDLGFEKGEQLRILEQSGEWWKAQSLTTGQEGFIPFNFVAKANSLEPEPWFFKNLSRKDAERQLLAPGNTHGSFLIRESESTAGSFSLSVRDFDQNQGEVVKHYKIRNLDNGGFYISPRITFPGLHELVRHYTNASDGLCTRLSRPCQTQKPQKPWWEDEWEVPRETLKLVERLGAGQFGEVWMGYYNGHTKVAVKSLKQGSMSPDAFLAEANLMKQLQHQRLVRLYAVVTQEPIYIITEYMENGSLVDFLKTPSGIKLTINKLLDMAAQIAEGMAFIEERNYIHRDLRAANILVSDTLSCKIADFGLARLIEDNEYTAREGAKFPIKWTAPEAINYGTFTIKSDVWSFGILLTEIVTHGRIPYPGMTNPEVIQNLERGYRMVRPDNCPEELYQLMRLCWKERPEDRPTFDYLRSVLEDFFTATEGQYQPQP
T1 sequence (Q06187 whole entry): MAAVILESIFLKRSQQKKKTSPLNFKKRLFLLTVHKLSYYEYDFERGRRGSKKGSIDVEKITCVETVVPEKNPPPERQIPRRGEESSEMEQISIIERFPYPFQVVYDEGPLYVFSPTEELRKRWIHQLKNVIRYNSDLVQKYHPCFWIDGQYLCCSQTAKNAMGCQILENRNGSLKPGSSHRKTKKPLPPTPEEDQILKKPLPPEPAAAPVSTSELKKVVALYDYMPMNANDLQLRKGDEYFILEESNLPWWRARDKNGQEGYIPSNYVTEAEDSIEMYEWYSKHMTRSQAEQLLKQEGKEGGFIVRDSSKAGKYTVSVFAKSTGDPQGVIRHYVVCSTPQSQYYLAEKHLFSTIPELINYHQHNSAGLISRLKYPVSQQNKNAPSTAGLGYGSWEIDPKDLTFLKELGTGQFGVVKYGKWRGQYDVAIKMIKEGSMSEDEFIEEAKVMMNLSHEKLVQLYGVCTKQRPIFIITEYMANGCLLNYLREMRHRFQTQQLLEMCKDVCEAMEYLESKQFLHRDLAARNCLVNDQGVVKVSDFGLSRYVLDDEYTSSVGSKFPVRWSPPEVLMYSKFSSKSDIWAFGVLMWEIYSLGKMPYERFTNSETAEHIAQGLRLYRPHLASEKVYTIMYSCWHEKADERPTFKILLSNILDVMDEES

The term IC50 denotes the point on the concentration scale where inhibition reaches its midpoint. On to `C[C@@H]1[C@H](NC(=O)c2ccc(C3CC3)cc2F)CCCN1c1cnc(C(N)=O)c(Nc2ccc(S(=O)(=O)N3CCN(C)CC3)cc2)n1` [Example A-156, 5-[(2R,3R)-3-(4-cyclopropyl-2-fluorobenzamido)-2-methylpiperidin-1-yl]-3-({4-[(4-methylpiperazin-1-yl)sulfonyl]phenyl}amino)pyr-azine-2-carboxamide], for which the IC50 is no more than 0.01 µM at BTK-WT (Table 13, A compounds); 0.1 to 1 µM against ITK (setting [1]); 1 to 10 µM on LCK (setting [1]).
For `C[C@@H]1[C@H](NC(=O)c2ccc(C3CC3)cc2F)CCCN1c1cnc(C(N)=O)c(Nc2cc(CN3CCOCC3)ns2)n1` [Example A-128, 5-[(2R,3R)-3-(4-cyclopropyl-2-fluorobenzamido)-2-methylpiperidin-1-yl]-3-{[3-(morpholin-4-ylmethyl)-1,2-thiazol-5-yl]amino}pyrazine-2-carboxamide], in that order: no more than 0.01 µM, 0.1 to 1 µM and 0.01 to 0.1 µM.
For `C[C@@H]1[C@H](NC(=O)c2ccc(C3CC3)cc2F)CCCN1c1cnc(C(N)=O)c(Nc2ccc(S(=O)(=O)N3CCCC3)cc2)n1` [Example A-175, 5-[(2R,3R)-3-(4-cyclopropyl-2-fluorobenzamido)-2-methylpiperidin-1-yl]-3-{[4-(pyrrolidine-1-sulfonyl)phenyl]amino}pyr-azine-2-carboxamide], in that order: no more than 0.01 µM, greater than 10 µM and greater than 10 µM.
Turning to `C[C@@H]1CCN(c2cnc(C(N)=O)c(Nc3cnn(C)c3)n2)C[C@@H]1NC(=O)c1ccc(C2CC2)cc1` [Example E-140, 5-((3R,4R)-3-(4-cyclopropylbenzamido)-4-methylpiperidin-1-yl)-3-((1-methyl-1H-pyrazol-4-yl)amino)pyrazine-2-carboxamide], the IC50 at BTK-WT (E compounds, Table 17) was 0.1 to 1 µM; against ITK (E compounds, Table 17) it was greater than 10 µM; on LCK (E compounds, Table 17), 1 to 10 µM.
As for `C=CC(=O)N1CCC[C@@H](Nc2nnc(C(N)=O)c(Nc3ccc(-c4ncco4)cc3)n2)C1` [Example E-40, (R)-3-(1-acryloylpiperidin-3-ylamino)-5-(4-(oxazol-2-yl)phenylamino)-1,2,4-triazine-6-carboxamide], the IC50 at BTK-WT (E compounds, Table 17) is no more than 0.01 µM; against ITK (E compounds, Table 17), 0.01 to 0.1 µM; at LCK (E compounds, Table 17) it was 0.1 to 1 µM.
For `C=CC(=O)N[C@@H]1CCCN(c2nnc(C(N)=O)c(Nc3ccc(Cl)cc3)n2)[C@@H]1C` [Example E-5, 3-((2R,3R)-3-acrylamido-2-methylpiperidin-1-yl)-5-((4-chlorophenyl)amino)-1,2,4-triazine-6-carboxamide], in that order: no more than 0.01 µM, 0.01 to 0.1 µM and less than 0.01 µM.
Turning to `C[C@@H]1[C@H](NC(=O)c2ccc(C3CC3)nc2)CCCN1c1cnc(C(N)=O)c(Nc2cnn(C)c2)n1` [Example A-190, 5-((2R,3R)-3-(6-cyclopropylnicotinamido)-2-methylpiperidin-1-yl)-3-(1-methyl-1H-pyrazol-4-ylamino)pyr-azine-2-carboxamide], the IC50 is no more than 0.01 µM on BTK-WT (Table 13, A compounds); 0.1 to 1 µM on ITK (setting [1]); 0.1 to 1 µM on LCK (setting [1]).
For the compound `Cn1cc(Nc2nc(N3C[C@@H](NC(=O)c4ccc(C5CC5)cc4)CC(F)(F)C3)cnc2C(N)=O)cn1` [Example A-187, (S)-5-(5-(4-cyclopropylbenzamido)-3,3-difluoropiperidin-1-yl)-3-(1-methyl-1H-pyrazol-4-ylamino)pyrazine-2-carboxamide], the IC50 at BTK-WT (Table 13, A compounds) was 0.1 to 1 µM; against ITK (setting [1]) it was greater than 10 µM; at LCK (setting [1]) it was greater than 10 µM.
Consider `Cc1cc(Nc2nc(N3CCC[C@@H](n4ccc5cc(C6CC6)ccc5c4=O)C3)cnc2C(N)=O)sn1` [Example A-107, 5-[(3R)-3-(6-cyclopropyl-1-oxo-1,2-dihydroisoquinolin-2-yl)piperidin-1-yl]-3-[(3-methyl-1,2-thiazol-5-yl)amino]pyrazine-2-carboxamide], for which the IC50 on BTK-WT (Table 13, A compounds) is no more than 0.01 µM; against ITK (setting [1]), greater than 10 µM; at LCK (setting [1]) it was greater than 10 µM.
For `Cc1cc(C(=O)N[C@@H]2CCCN(c3cnc(C(N)=O)c(Nc4cnn(C)c4)n3)[C@@H]2C)ccc1C(C)(C)O` [Example E-152, 5-((2R,3R)-3-(4-(2-hydroxypropan-2-yl)-3-methylbenzamido)-2-methylpiperidin-1-yl)-3-((1-methyl-1H-pyrazol-4-yl)amino)pyrazine-2-carboxamide], the IC50 at BTK-WT (E compounds, Table 17) was no more than 0.01 µM; at ITK (E compounds, Table 17) it was 0.1 to 1 µM; at LCK (E compounds, Table 17), 0.01 to 0.1 µM.
As to `C=CC(=O)N[C@@H]1CCCN(c2nnc(C(N)=O)c(Nc3ccc(C4(C)CCN(C5CC5)CC4)cc3)n2)[C@@H]1C` [Example E-2, 3-((2R,3R)-3-acrylamido-2-methylpiperidin-1-yl)-5-((4-(1-cyclopropyl-4-methylpiperidin-4-yl)phenyl)amino)-1,2,4-triazine-6-carboxamide], the IC50 at BTK-WT (E compounds, Table 17) was no more than 0.01 µM; at ITK (E compounds, Table 17) it was 0.01 to 0.1 µM; at LCK (E compounds, Table 17), 0.1 to 1 µM.
As for `C[C@@H]1[C@H](NC(=O)c2ccc(C(C)(C)N3CCCC3)cc2)CCCN1c1cnc(C(N)=O)c(Nc2cnn(C)c2)n1` [Example E-143, 3-((1-methyl-1H-pyrazol-4-yl)amino)-5-((2R,3R)-2-methyl-3-(4-(2-(pyrrolidin-1-yl)propan-2-yl)benzamido)piperidin-1-yl)pyrazine-2-carboxamide], the IC50 on BTK-WT (E compounds, Table 17) is no more than 0.01 µM; on ITK (E compounds, Table 17) it was 0.1 to 1 µM; at LCK (E compounds, Table 17), 0.01 to 0.1 µM.
The corresponding values for `Cc1nc(-c2ccc(C(=O)N[C@@H]3CCCN(c4cnc(C(N)=O)c(Nc5cnn(C)c5)n4)[C@@H]3C)cc2)cs1` [Example E-155, 3-((1-methyl-1H-pyrazol-4-yl)amino)-5-((2R,3R)-2-methyl-3-(4-(2-methylthiazol-4-yl)benzamido)piperidin-1-yl)pyrazine-2-carboxamide] are no more than 0.01 µM, 0.1 to 1 µM and 0.01 to 0.1 µM.
Regarding `C[C@@H]1[C@H](NC(=O)c2ccc(C3CC3)cc2)CCCN1c1cnc(C(N)=O)c(Nc2cnn(C)c2)n1` [Example A-169, 5-[(2R,3R)-3-(4-cyclopropylbenzamido)-2-methylpiperidin-1-yl]-3-[(1-methyl-1H-pyrazol-4-yl)amino]pyrazine-2-carboxamide], the IC50 at BTK-WT (Table 13, A compounds) was no more than 0.01 µM; at ITK (setting [1]) it was 1 to 10 µM; on LCK (setting [1]), 0.1 to 1 µM.
With `C[C@@H]1[C@H](NC(=O)c2ccc(C(C)(C)O)cc2)CCCN1c1cnc(C(N)=O)c(Nc2ccc(C3(C)CCN(C4CC4)CC3)cc2)n1` [Example E-147, 3-((4-(1-cyclopropyl-4-methylpiperidin-4-yl)phenyl)amino)-5-((2R,3R)-3-(4-(2-hydroxypropan-2-yl)benzamido)-2-methylpiperidin-1-yl)pyrazine-2-carboxamide], the IC50 at BTK-WT (E compounds, Table 17) was no more than 0.01 µM; on ITK (E compounds, Table 17), 0.01 to 0.1 µM; at LCK (E compounds, Table 17) it was less than 0.01 µM.
Consider `C=CC(=O)N1CCC[C@@H](Nc2nnc(C(N)=O)c(Nc3ccc(C4(C)CCN(C5CC5)CC4)cc3)n2)[C@H]1C` [Example E-127, 3-(((2R,3R)-1-acryloyl-2-methylpiperidin-3-yl)amino)-5-((4-(1-cyclopropyl-4-methylpiperidin-4-yl)phenyl)amino)-1,2,4-triazine-6-carboxamide], for which the IC50 was no more than 0.01 µM at BTK-WT (E compounds, Table 17); no more than 0.01 µM against ITK (E compounds, Table 17); less than 0.01 µM on LCK (E compounds, Table 17).
For `C[C@@H]1[C@H](n2ccc3cc(C4CC4)ccc3c2=O)CCCN1c1cnc(C(N)=O)c(Nc2ccc(N3CCN(C)CC3)cc2)n1` [Example A-140, 5-[(2R,3R)-3-(6-cyclopropyl-1-oxo-1,2-dihydro-isoquinolin-2-yl)-2-methylpiperidin-1-yl]-3-{[4-(4-methylpiperazin-1-yl)phenyl]amino}pyrazine-2-carboxamide], the IC50 on BTK-WT (Table 13, A compounds) is no more than 0.01 µM; against ITK (setting [1]) it was 0.1 to 1 µM; on LCK (setting [1]) it was 0.01 to 0.1 µM.
The corresponding values for `C[C@@H]1[C@H](NC(=O)c2ccc(C3CC3)cc2F)CCCN1c1cnc(C(N)=O)c(Nc2cnn(C)c2)n1` [Example A-110, 5-[(2R,3R)-3-(4-cyclopropyl-2-fluorobenzamido)-2-methylpiperidin-1-yl]-3-[(1-methyl-1H-pyrazol-4-yl)amino]pyrazine-2-carboxamide] are no more than 0.01 µM, 0.1 to 1 µM and 1 to 10 µM.
Consider `CC1(c2ccc(Nc3nc(N4CCC[C@@H](n5ccc6cc(C7CC7)ccc6c5=O)C4)cnc3C(N)=O)cc2)CCN(C2CCCC2)CC1` [Example A-141, 3-{[4-(1-cyclopentyl-4-methylpiperidin-4-yl)phenyl]amino}-5-[(3R)-3-(6-cyclopropyl-1-oxo-1,2-dihydroisoquinolin-2-yl)piperidin-1-yl]pyrazine-2-carboxamide], for which the IC50 on BTK-WT (Table 13, A compounds) was no more than 0.01 µM; against ITK (setting [1]), 0.01 to 0.1 µM; at LCK (setting [1]) it was 0.01 to 0.1 µM.
